Source: ChEMBL document CHEMBL4002633, “Synthesis, evaluation and quantitative structure-activity relationship (QSAR) analysis of Wogonin derivatives as cytotoxic agents” (Bioorg Med Chem Lett, 2017)

What was measured:
[1] = test system: HepG2; assay: Cytotoxicity against human HepG2 cells assessed as reduction in cell viability after 48 hrs by MTT assay; format: functional, cell-based; settings: HepG2, 48 h
[2] = test system: A549; assay: Cytotoxicity against human A549 cells assessed as reduction in cell viability after 48 hrs by MTT assay; format: functional, cell-based; settings: A549, 48 h
[3] = Cytotoxicity against human BCG823 cells assessed as reduction in cell viability after 48 hrs by MTT assay; format: functional, cell-based; settings: BCG823, 48 h
[4] = test system: A549; assay: Potency index, ratio of 5-fluorouracil IC50 to compound IC50 for human A549 cells; format: functional
[5] = test system: HepG2; assay: Potency index, ratio of 5-fluorouracil IC50 to compound IC50 for human HepG2 cells; format: functional
[6] = Potency index, ratio of 5-fluorouracil IC50 to compound IC50 for human BCG823 cells; format: functional

Compound	IC50 ([1]; read-out: IC50) [µM]	IC50 ([1]; read-out: pIC50 (converted)) [µM]	IC50 [2] [µM]	IC50 [3] [µM]	Ratio IC50 [4]	Ratio IC50 [5]	Ratio IC50 [6]
COc1c(OCc2ncc(C)o2)cc(O)c2c(=O)cc(-c3ccccc3)oc12	20.2	20.4	> 100				
COc1c(OCCCCN2CCNCC2)cc(O)c2c(=O)cc(-c3ccccc3)oc12	1.07	1.07	1.74	0.98	9	18	17
O=c1cc(-c2ccccc2)oc2c(OCCCCNC3CCCCC3)c(O)cc(O)c12	10.9	11		48.6			
COc1c(O)cc(O)c2c(=O)cc(-c3ccc(Cl)cc3)oc12	34.2	33.9					
COc1c(OCCCNCc2ccccc2)cc(O)c2c(=O)cc(-c3ccccc3)oc12	8.12	8.13	1.57	9.93			
COc1c(OCCCCN(CCO)CCO)cc(O)c2c(=O)cc(-c3ccccc3)oc12	2.64	2.63	1.26	5.89			
CCN(CC)CCCOc1c(O)cc(O)c2c(=O)cc(-c3ccccc3)oc12	67.5	67.6	> 100				
O=c1cc(-c2ccccc2)oc2c(OCCN3CCOCC3)c(O)cc(O)c12	39.9	39.8	> 100				
COc1c(O)cc(O)c2c(=O)cc(-c3ccc(F)cc3Br)oc12	33.5	33.9					
O=c1cc(-c2ccccc2)oc2c(OCCCCN3CCOCC3)c(O)cc(O)c12	15.1	15.1	82.3				
CN(C)CCOc1c(O)cc(O)c2c(=O)cc(-c3ccccc3)oc12	40	39.8	> 100				
CNCCCCOc1c(O)cc(O)c2c(=O)cc(-c3ccccc3)oc12	97	97.7		> 100			
COc1c(OCCCCN2CCN(C)CC2)cc(O)c2c(=O)cc(-c3ccccc3)oc12	1.12	1.12	1.5	5.3			
CC(C)NCCCCOc1c(O)cc(O)c2c(=O)cc(-c3ccccc3)oc12	29.9	30.2		71.2			
COc1c(OCCCN2CCOCC2)cc(O)c2c(=O)cc(-c3ccccc3)oc12	6.5	6.46	2.3	3.7			
CC(C)NCCOc1c(O)cc(O)c2c(=O)cc(-c3ccccc3)oc12	14.1	14.1		> 100			
O=c1cc(-c2ccccc2)oc2c(OCCCN3CCOCC3)c(O)cc(O)c12	21.5	20.9	> 100				
CCCNCCCCOc1c(O)cc(O)c2c(=O)cc(-c3ccccc3)oc12	9.99	10		51			
CCN(CC)CCOc1c(O)cc(O)c2c(=O)cc(-c3ccccc3)oc12	68.1	67.6	> 100				
CCN(CC)CCCCOc1cc(O)c2c(=O)cc(-c3ccccc3)oc2c1OC	1.72	1.74	1	6.17			
CN(C)CCCCOc1c(O)cc(O)c2c(=O)cc(-c3ccccc3)oc12	35.7	35.5	> 100				
COc1c(OCc2cnoc2C)cc(O)c2c(=O)cc(-c3ccccc3)oc12	21.7	21.9	> 100				
CN(C)CCCOc1c(O)cc(O)c2c(=O)cc(-c3ccccc3)oc12	41.8	41.7	> 100				
COc1c(OCCCN(CCO)CCO)cc(O)c2c(=O)cc(-c3ccccc3)oc12	3.79	3.8	3	6.45			
CC(CO)NCCOc1c(O)cc(O)c2c(=O)cc(-c3ccccc3)oc12 (stereo not drawn)	43.5	43.7		92.2			
